Results taken from US6716596B2, “Agents for replacement of NAD+/NADH system in enzymatic reactions” (The Regents of the University of California, priority 2001, dated 2004).

Columns and labels:
[1] = water solubility of biomimics
[2] = molecular target: T1, horse liver alcohol dehydrogenase (HLADH) (Equus caballus, UniProt P00327); assay: HLADH enzymatic chiral reduction of ketones with biomimic co-factor regeneration; format: biochemical
T1 construct: purchased Sigma
Protocol: FIG. 7 presents structures of ketone substrates 12-15 used for biomimic chiral synthesis of corresponding alcohols. Conversion of the substrates 12-15 to their corresponding alcohols are expressed in % yield, and TOF in d^−1 and S-enantiomer excess (ee) are also shown for each conversion. Corresponding values obtained with NAD^+ are given in parenthesis. The S-enantiomeric excess (ee) was determined by GLC with a modified β-cyclodextrin capillary column.
[Cp*Rh(bpy)(H2O)]OTf2 (1.9 mg, 2.61×10^−3 mmol), sodium formate (17.8 mg, 261.69×10^−3 mmol), NAD^+ (8.1 mg, 11.23×10^−3 mmol) and HLADH (10 units) were placed in a 10 mL Schlenk flask, and Schlenk techniques were followed to deoxygenate the solid mixture.
Under positive argon pressure, 5 mL of potassium phosphate buffer (100 mM, pH=7.02, deoxygenated) and carbonyl substrate (83.58×10^−3 mmol, deoxygenated) were added via syringe. The reaction flask was immediately securely capped with a glass-stopper and shaken with a shaker in 30° C. water-bath. The reaction was monitored by gas chromatography (GC), equipped with a β-cyclodextrin column (Supelco, β-DEX-225), and the products were identified by comparing the retention time with the corresponding authentic chiral samples and were confirmed by GC-MS. The enantiomeric excess of the products was determined directly by their relative area in the chromatogram. The progress of the reaction was obtained by mixing the reaction aliquot with an internal standard (cyclohexanol in phosphate buffer), and then calibrating the measured relative area in the chromatogram with their corresponding response factors. The reaction was monitored for 24 hours.
The same procedure as described in section A was followed, except that NAD^+ was substituted with any one of the biomimic compounds of the invention.

T1 sequence (P00327 2-375 limits assumed): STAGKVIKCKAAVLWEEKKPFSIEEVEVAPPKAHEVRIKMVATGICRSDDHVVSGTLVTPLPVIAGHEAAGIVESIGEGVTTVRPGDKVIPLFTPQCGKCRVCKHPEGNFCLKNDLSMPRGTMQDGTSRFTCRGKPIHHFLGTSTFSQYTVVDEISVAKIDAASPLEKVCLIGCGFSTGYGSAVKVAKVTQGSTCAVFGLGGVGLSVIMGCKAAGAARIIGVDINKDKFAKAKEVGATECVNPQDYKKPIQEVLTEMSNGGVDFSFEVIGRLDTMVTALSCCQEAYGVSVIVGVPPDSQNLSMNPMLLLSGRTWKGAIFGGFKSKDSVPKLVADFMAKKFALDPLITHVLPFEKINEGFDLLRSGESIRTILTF

| water solubility [1] | recognition by HLADH as hydride catalyst of the chiral conversion [2] | Structure (SMILES) |
| --- | --- | --- |
| completely water soluble | recognizes | COP(=O)(O)OC[C@H]1O[C@@H](N2C=CCC(C(N)=O)=C2)[C@H](O)[C@@H]1O [Compound 7, β-1,4-dihydronicotinamide ribose-5′-methyl phosphate] |
| both water and organic solvent soluble | – | C=CC(=O)OCCOCCOCC(=O)[n+]1cccc(C(N)=O)c1.[Br-] [Compound 10, 1-(8-acryloyloxy-3,6-dioxaoctanoyl)-3-carbamoylpyridinium bromide] |
